The record followed here is patent publication US10450549B2, “Aryloxyphenoxypropionate tolerance in turfrgass species and use of AAD1 as a selectable marker” (Dow AgroSciences, LLC, priority 2004, dated 2019).

The kcat is the number of substrate molecules converted per active site and unit of time at saturation. By Km is commonly meant the concentration of substrate that gives half-maximal velocity.

The target of one assay is T1, AAD1 (v1) (Sphingobium herbicidovorans, UniProt Q8KSC8).
T1 construct: made in house; host or cells: E. coli BL-21 Star (DE3), plasmid pDAB3203
T1 sequence (Q8KSC8 whole entry): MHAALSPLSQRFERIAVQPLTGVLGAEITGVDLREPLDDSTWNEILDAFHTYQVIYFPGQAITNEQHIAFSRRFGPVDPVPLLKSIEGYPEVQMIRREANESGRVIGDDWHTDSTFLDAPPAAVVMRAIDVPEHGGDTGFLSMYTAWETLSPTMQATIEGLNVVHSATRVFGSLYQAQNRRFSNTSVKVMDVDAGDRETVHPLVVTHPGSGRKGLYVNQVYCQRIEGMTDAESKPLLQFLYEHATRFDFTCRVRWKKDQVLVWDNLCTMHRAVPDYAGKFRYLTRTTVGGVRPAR
Briefly: Colorimetric phenol detection assay of AAD1 (v1) activity (purified enzyme or E. coli extract). Format: biochemical. As to conditions: for activity of AAD1 (v1) E. coli extract on substrate: 0.5 mM substrate, 4 μl extract, 15 min; for A510, AAD1 / A510, AAD1 (10x): Table 4, substrate 1 mM; for A510, AAD1: 1 μg purified AAD1 (v1) per 0.16 ml assay; for A510, AAD1 (10x): 10 μg purified AAD1 (v1) per 0.16 ml assay.

In assay [1] the test system is Agrostis palustris var. Pencross. Briefly: Bentgrass plate test bioassay for herbicide degradation. Format: in vivo. As to conditions: for GR50 ratio: enzyme-expressing lysate vs blank vector, ≥ 2 = threshold. Here is the method:
Because of the selective nature of the herbicides being tested (i.e., monocot plants controlled by AOPP herbicides and dicot plants controlled by auxinic herbicides), wildtype Agrostis palustris var. Pencross and Arabidopsis thaliana var. Columbia were used as monocot and dicot test species, respectively. Each species is amenable to germination and growth in small Petri dishes.
Twenty to thirty sterilized seeds for each test species used were added onto a sterile, solidified agar Plate Test Medium (PTM) [2.5 mM KNO3, 2.5 mM KH2PO4, […], 10 mM NaEDTA (pH 8.0), 2 mM MgSO4, 2 mM Ca(NO3) 2, 70 μM H3BO3, 14 μM MnCl2, 0.5 μM CuSO4, 1 μM ZnSO4, 0.2 μM NaMoO4.2H2O, 10 μM NaCl, 10 nM CoCl2.H2O, 0.8% (w/v) sucrose, 0.4% agarose (w/v)] for bioassay in 60×15-mm Petri dishes (Falcon 1007). PTM was additionally modified by adding up to six rates of test herbicide standards or herbicide-enzyme test solution dilutions such that the four-fold concentration increments covered a rate range of three orders of magnitude with the GR50 rate (50% growth reduction) approximately in the center of the range.
For herbicide-enzyme test solutions, the maximal concentration was determined based on the nominal concentration before any subsequent enzymatic degradation would occur. Seeds were evenly spread by adding 3 ml of melted PTM of the same composition, swirling, and allowing to solidify. Plates were sealed and maintained under sterile conditions in a low light growth chamber (24 h day^−1, 100 μE/m^2s^1, 23° C.) for 7 days. Root length or root+shoot length were measured for five randomly chosen Arabidopsis and bentgrass plants, respectively, average mean length (percent of untreated control) vs. nominal herbicide concentration and GR50 determined.

The subject of assay [2] is T4 Arabidopsis homozygous for AAD1 (v3) (line AAD1.01.315.076). Briefly: Foliar-applied auxinic herbicides on homozygous T4 AAD1 (v3) Arabidopsis, % injury 14 DAT. Format: in vivo, Arabidopsis thaliana. Conditions: AAD1.01.315.076.T4 homozygous AAD1 plants. In short, it runs like this: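 Homozygous T4 AAD1 (v3) Arabidopsis (line AAD1.01.315.076) and a PAT/Cry1F transformed control were grown in pots and track-sprayed foliarly at 187 L/ha with herbicides formulated in 200 mM Hepes pH 7.5. Injury was rated 14 days after treatment, with 3-4 replicates averaged over two experiments.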

The test system of assay [3] is AAD1 (v3) T1 tobacco (events 721(2)-013.010 and 721(3)-008.005). Briefly: Segregating AAD1 T1 tobacco response to phenoxy auxin herbicides. Type of assay: in vivo, Nicotiana tabacum. An excerpt: (§1) Two AAD1 (v3) tobacco lines (event 721(2)-013.010 and 721(3)-008.005) were chosen from the T0 generation. The T1 seed was stratified, and sown into selection trays much like that of Arabidopsis (Example 6.4), followed by selective removal of untransformed nulls in this segregating population with 280 g ai/ha glufosinate (PAT selection). Survivors were transferred to individual 3-inch pots in the greenhouse. […] Improved consistency of response is anticipated in T1 plants not having come directly from tissue culture. These plants were compared against wildtype KY 160 tobacco. All plants were sprayed with the use of a track sprayer set at 187 L/ha. […] All applications were formulated in 200 mM Hepes buffer (pH 7.5). Each treatment was replicated 4 times. Plants were evaluated at 3 and 14 days after treatment. Plants were assigned injury rating with respect to stunting, chlorosis, and necrosis. The T1 generation is segregating, so some variable response is expected due to difference in zygosity. (Table 28).

The subject of assay [4] is transformed-control line containing PAT and Cry1F. Briefly: Foliar-applied auxinic herbicides on control (PAT/Cry1F, wildtype) Arabidopsis, % injury 14 DAT. Type of assay: in vivo, Arabidopsis thaliana. As to conditions: PatCry1f - Control. As for the experimental part:
The ability of AAD1 (v3) to provide resistance to other aryloxyphenoxyalkanoate auxin herbicides in transgenic Arabidopsis was determined by foliar application of various substrates described in Example 6.8. T4 generation Arabidopsis seed, homozygous for AAD1 (v3) (line AAD1.01.315.076) was stratified, and sown into selection trays much like that of Arabidopsis (Example 6.4). A transformed-control line containing PAT and the insect resistance gene Cry1F was planted in a similar manner. Seedlings were transferred to individual 3-inch pots in the greenhouse. All plants were sprayed with the use of a track sprayer set at 187 L/ha. […] All applications were formulated in 200 mM Hepes buffer (pH 7.5). Each treatment was replicated 3-4 times. Plants were evaluated at 3 and 14 days after treatment and are averaged over two experiments.

Another assay deals with wildtype KY 160 tobacco. Briefly: Wildtype tobacco response to phenoxy auxin herbicides. Type of assay: in vivo, Nicotiana tabacum. Conditions: KY160-Wildtype. Here is the method:
Each treatment was replicated 1-3 times. Injury ratings were recorded 3 and 14 DAT. […] In several events, some initial auxinic herbicide-related epinasty occurred at doses of 800 g ae/ha or less. […] All events suffered some level temporary auxinic damage 3 DAT when treated with 3200 g ae/ha. Some leaf burning also occurred at this high rate due to the acidity of the spray solution. Future trials at high 2,4-D rates were buffered. […] Some events were inconsistent in response among replicates and were deemed “variable” (Table 27).
as §1

Assay [5] deals with F1 corn containing AAD1 (v3), PAT, and glyphosate resistance genes. Briefly: Greenhouse injury of F1 corn stacked with AAD1 (v3), PAT and glyphosate resistance (2,4-D DMA, glyphosate, glufosinate and combinations). Type of assay: in vivo. As to conditions: RR/PAT/AAD1. An excerpt: Homozygous T2 AAD1 (v3)/PAT corn plants were crossed with glyphosate resistant corn plants producing F1 seed containing AAD1 (v3), PAT, and glyphosate resistance genes as described in the previous example.
(§2) F1 seeds were planted individually into 3-inch pots prepared with Metro-Mix® 360 growing medium (Sun Gro Horticulture). […] For the remainder of the study the plants were subirrigated with deionized water.
(§3) The plants were sprayed with rates of 2,4-D DMA, glyphosate, glufosinate, and various combinations of the three. All applications were formulated in 200 mM Hepes buffer (pH 7.5). In spray applications where glufosinate was present the treatment was formulated with the addition of 2% w/v ammonium sulfate.
(§4) At 3 and 14 days after treatment (DAT) plants were evaluated. Plants were assigned injury rating with respect to stunting, chlorosis, and necrosis. Plants assigned an injury rating of 90% or above are considered dead.

A further assay concerns Hi II X 5XH751. Briefly: Greenhouse injury of non-transformed Hi II X 5XH751 corn (2,4-D DMA, glyphosate, glufosinate and combinations). Type of assay: in vivo. Here is the method: as §2, §3, §4
Assay [6] deals with AAD1 (v3)-transformed T0 corn events. Briefly: Tolerance of T0 AAD1 (v3) corn plants (pDAB3404) to postemergence AOPP herbicides. Format: in vivo.
Assay [7] concerns Hi-II corn grown from seed. Briefly: Lethal dose of AOPP herbicides on non-transformed Hi-II corn.
Where [8] appears, read: Agrostis stolonifera, AAD1 (v1)-expressing lysate, nominal concentration, read-out: GR50, Chemical + AAD1 v1.
Setting [9] is: Escherichia coli, in Agrostis stolonifera, cell lysate of E. coli pET vector without gene insert, read-out: GR50, Chemical + Blank Vector.
Where [10] appears, read: purified AAD1 (v1), 1 mM substrate.

Read-outs that look alike come from different tables or passages of the source.

Take `CC(Oc1ccc(Oc2ccc(Cl)cc2Cl)cc1)C(=O)O` (racemic) [(R,S)- diclofop]: on AAD1 (v1), the “activity of AAD1 (v1) E. coli extract on substrate” value is recorded as “cleaved”; the “A510, AAD1” value was determined as 0.155; the “A510, AAD1 (10x)” value was found to be 1.663. Further, in assay [1] (AAD1 (v1) extract), the “herbicidal activity after AAD1 (v1) treatment, bentgrass plate bioassay” value was “loss of herbicidal activity”. In assay [1] (setting [8]), the IC50 is 130 nM. For the same compound, the IC50 in assay [1] (setting [9]) worked out at 20 nM. Besides, the GR50 ratio in assay [1] worked out at 7.
On to `CC(Oc1ccc(Oc2ncc(C(F)(F)F)cc2Cl)cc1)C(=O)O` (stereo not shown) [Haloxyfop-RS], for which the “activity of AAD1 (v1) E. coli extract on substrate” value on AAD1 (v1) was “cleaved”. The IC50 amounted to 28 nM in assay [1] (Agrostis stolonifera, 168 h, root+shoot length, 7 days, read-out: GR50, Chemical alone); 520 nM in assay [1] (setting [8]); 21 nM in assay [1] (setting [9]). The GR50 ratio in assay [1] came out at 25.
Consider `C[C@@H](Oc1ccc(Cl)cc1Cl)C(=O)O` [R-dichlorprop], for which the kcat at AAD1 (v1) (purified AAD1 (v1)) is 0.435 s⁻¹. Further, the Km on AAD1 (v1) (purified AAD1 (v1), 25 mM MOPS pH 6.8, 25° C., read-out: Km ± SE) turned out to be 75 ± 10 µM. For the same compound, the “Vmax ± SE” value at AAD1 (v1) (purified AAD1 (v1), Michaelis-Menten fit) came out at 0.79 ± 0.03 μmol min^−1 mg^−1 AAD1. Also, the “Ave % Injury 14DAT” value in assay [2] (50 g ae/ha foliar) was determined as 3%; in assay [2] (200 g ae/ha foliar) it was 3%; in assay [2] (800 g ae/ha foliar), 3%; in [2] (3200 g ae/ha foliar) it was 3%; in assay [4] (50 g ae/ha foliar) it was 31%; in [4] (200 g ae/ha foliar), 73%. The “Ave % Injury 14DAT” value in assay [4] (800 g ae/ha foliar) stood at 89%; in assay [4] (3200 g ae/ha foliar) it was 95%. The “Average % Injury of Replicates 14 DAT” value in assay [3] (560 g ae/ha, 721(2)013.010 (medium tolerance in T0 generation)) was found to be 5%; in [3] (560 g ae/ha, 721(3)008.005 (high tolerance in T0 generation)), 0%; in [3] (1120 g ae/ha, 721(2)013.010 (medium tolerance in T0 generation)), 5%; in assay [3] (1120 g ae/ha, 721(3)008.005 (high tolerance in T0 generation)), 0%; in [3] (2240 g ae/ha, 721(2)013.010 (medium tolerance in T0 generation)) it was 5%; in assay [3] (2240 g ae/ha, 721(3)008.005 (high tolerance in T0 generation)), 0%. In addition, the “Average % Injury of Replicates 14 DAT” value in assay [3] (4480 g ae/ha, 721(2)013.010 (medium tolerance in T0 generation)) turned out to be 10%; in assay [3] (4480 g ae/ha, 721(3)008.005 (high tolerance in T0 generation)), 5%; in the assay with wildtype KY 160 tobacco (560 g ae/ha) it was 70%; in the assay with wildtype KY 160 tobacco (1120 g ae/ha), 75%; with wildtype KY 160 tobacco (2240 g ae/ha) it was 88%; with wildtype KY 160 tobacco (4480 g ae/ha), 95%. The “injury of T1 AAD1 (v3) tobacco” value in assay [3] (rates below 1× field rates (560 g ae/ha), either event) was “No injury was observed”.
With `CP(=O)(O)CCC(N)C(=O)O` (stereo not shown) [glufosinate], the “% Injury at 14 DAT Ave” value in assay [5] (470 g ae/ha (1X)) turned out to be 0%; in assay [5] (940 g ae/ha (2X)), 3%; in assay [5] (1880 g ae/ha (4X)) it was 15%; in the assay with Hi II X 5XH751 (470 g ae/ha (1X)), 80%; in the assay on Hi II X 5XH751 (940 g ae/ha (2X)), 90%; with Hi II X 5XH751 (1880 g ae/ha (4X)), 96%.
For the compound `C[C@@H](Oc1ccc(Oc2ccc(C#N)cc2F)cc1)C(=O)O` [cyhalofop], the “% Injury 14 DAT” value in assay [6] (62.5 g ae/ha, construct 3404 event 001 clone 018) was determined as 0%; in [6] (62.5 g ae/ha, construct 3404 event 022 clone 024) it was 0%; in assay [6] (62.5 g ae/ha, construct 3404 event 038 clone 018) it was 0%; in assay [6] (125 g ae/ha, construct 3404 event 022 clone 018) it was 0%. Also, the “A510, AAD1” value at AAD1 (v1) is reported as 0.114. For the same compound, the “A510, AAD1 (10x)” value on AAD1 (v1) worked out at 1.26. The “activity relative to the dichlorprop rate” value on AAD1 (v1) (setting [10]) turned out to be 21%. Also, the “activity relative to the quizalofop rate” value at AAD1 (v1) (setting [10]) was determined as 27%. Also, in assay [7] (Clincher + 1% COC (v/v)), the lethal dose was 62.5 g ae/ha). Also, the “rate that effectively kills (>95% injury) three to four leaf Hi-II corn” value in assay [7] (postemergence, commercial formulations) was 62.5 g ae/ha.
